In PMC7025647, “Identifying the Naphthalene-Based Compound 3,5-Dihydroxy 2-Napthoic Acid as a Novel Lead Compound for Designing Lactate Dehydrogenase-Specific Antibabesial Drug” (Frontiers in Pharmacology, 2020):
Values joined by “and” are separate entries in the source; they are usually repeats but may differ in a detail not shown here. Equal entries are not always repeated. Where two headings read alike, the source gives them in different places. Each block holds one compound with its values, some of them ahead of it.

Assays:
[1] = target: human lactate dehydrogenase (HmLDH); design: method as in Conners et al., 2005; settings: ref Conners et al., 2005; cited from earlier work
Vero cells = assay: Cytotoxicity test by MTT method; assay type: cell-based, African green monkey; settings: for SI (selectivity index): between B. microti and Vero cells
Protocol: (§1) Mycoplasma-free Vero cell line (ATCC-CCL-81, immortalized cells) was preserved in liquid nitrogen with the additive of DMSO in the State Key Laboratory of Agricultural Microbiology, Huazhong Agricultural University, China. […] After adding 10 µl MTT (5 mg/ml in medium) into each test well, the plate was further incubated for another 2 h, followed by removing the culture from the incubator and discarding the medium. […] The plate was gently mixed on a gyratory shaker for 10 min and the absorbances were measured at a wavelength of 570 nm using a microplate reader (BioTek, Vermont, USA). The background absorbances of the multi-well plate at 690 nm were subtracted from the 570 nm measurement. […] The CC50 values were calculated using GraphPad Prism 5 (San Diego, CA, USA), and all the cytotoxicity tests were performed three times.

[2] = Cytotoxicity test by MTT method; assay type: cell-based, African green monkey; settings: African green monkey, Vero cells (ATCC-CCL-81), MTT, 72 h
Protocol: as §1

[3] = test system: B. microti ATCC PRA-99 strain; assay: Growth inhibition of B. microti in vitro; assay type: cell-based, Babesia microti; settings: for IC50: Babesia microti
Protocol: (§2) Three BALB/c mice were intraperitoneally injected with 1 x 10^7 parasites (100 μl fresh blood), and their blood was collected from the tail when parasitemia reached ~60% at day 7 post-infection. The growth inhibition assay of B. microti in vitro was performed by incubating freshly isolated infected mouse red blood cells (RBCs) with varying concentrations of the drugs. Briefly, […] infected mouse RBCs was diluted with 5 μl non-infected mouse RBCs and 10 μl non-infected human RBCs to achieve ~3% parasitemia in a total of 40 μl and suspended in 110 μl of a growth medium (20% bovine serum and 80% medium HL20) containing the indicated concentrations of drugs (50, 100, and 250 μM). The cultures were maintained at 37°C for 72 h in a gas mixture of 2% O2, 5% CO2, and 93% N2. Two naphthalene-based compounds DBHCA and DHNA were prepared as 100 mM stock solutions in DMSO and further diluted with growth medium. Each concentration of the compounds was tested in triplicate, while three wells received a drug-free culture medium as a control. 10 μM diminazene aceturate (DA) was selected as a positive control. Parasitemia was determined at 72 h post-treatment by enumerating a total of at least 1,000 RBCs in a Giemsa-stained thin smear. Differences in the percent parasitemia were statistically analyzed using one-way ANOVA analysis, and the IC50 values were calculated manually for obtaining more reliable data (Käber method). The hemolysis of DBHCA and DHNA against B. microti-free erythrocytes was monitored by cell counting chamber at 72 h post-treatment. All the experiments were separately repeated three times.

rBmLDH = rBmLDH (Babesia microti, UniProt I7J7V6); assay: Surface plasmon resonance binding kinetics (Biacore T200); settings: for koff: read-out: k d
Protocol: The binding properties of the rBmLDH against DBHCA and DHNA were measured separately by SPR experiment with a Biacore T200 system (GE Healthcare, Uppsala, Sweden). Briefly, a sensor chip CM5 was put into a Biacore T200 system and washed with the running buffer (PBST+0.5% DMSO, pH7.5). The CM5 chip was activated by injecting the mixture of 0.1 M N-hydroxysuccinimide (NHS) and 0.4 M 1-ethyl-3-(3-dimethylaminopropyl) carbodiimide hydrochloride (EDC) (1:1, v/v) at a flow rate of 10 μl·min^−1 for 20 min. Then, the rBmLDH diluted to 10 μg·ml^−1 with 10 mM sodium acetate buffer (pH 4.0, 4.5, 5.0, and 5.5) was covalently immobilized on the CM5 chip at a flow rate of 10 μl·min^−1 until the immobilization level of BmLDH reached 2,100 resonance units (RU). Ethanolamine solution was injected to block the remaining unreacted esters. Flow cell 1 was activated and blocked as the reference surface, while flow cell 2 served as the experimental surface. The 100 mM stocks of the two small molecule compounds were further diluted with PBST into 500, 250, 125, 62.5, 31.25, and 15.625 μM. The surface of CM5 sensor chip was fully regenerated using 10 mM glycine pH2.5 at a flow rate of 30 μl min^−1 for 30 s. The SPR kinetic experiments were performed three times and the values were presented as the mean ± SD of three independent experiments.
For binding kinetic assays, standard solutions of two naphthalene-based compounds (DBHCA and DHNA) at different concentrations were tested and the data were fitted with a 1:1 binding kinetic model.

[4] = test system: B. microti-free erythrocytes; assay: Hemolysis of B. microti-free erythrocytes; assay type: cell-based; settings: drug levels up to 250 µM, 72 h post-treatment
Protocol: as §2, with “Each concentration of the compounds was tested in triplicate, while three wells received a drug-free culture medium as a control. 10 μM diminazene aceturate (DA) was selected as a positive control.” left out, “All the experiments were separately repeated three times.” left out

[5] = target: recombinant BmLDH (rBmLDH) (Babesia microti, UniProt I7J7V6); assay: biochemical; assay type: biochemical; settings: for selectivity over human LDH: rBmLDH vs human LDH
Protocol: The enzyme activity of rBmLDH was analyzed using Lactate Dehydrogenase Activity Assay Kit (Sigma-Aldrich, Shanghai, China) according to the manufacturer’s instruction. Briefly, the enzymatic activity of BmLDH was detected by catalyzing the conversion of lactate to pyruvate, with concomitant reduction of NAD^+ to NADH. The coupled reaction was followed by measuring absorbance at 450 nm and at 37°C. Three naphthalene-based compounds [2,6-naphthalenedicarboxylic acid (NDCA), 1,6-dibromo-2-hydroxynapthalene 3-carboxylic acid (DBHCA), and 3,5-dihydroxy 2-napthoic acid (DHNA)] were purchased from Sigma-Aldrich (Shanghai, China) with 99% purity for NDCA and 97% purity for DBHCA and DHNA. In the inhibitory analysis, three naphthalene-based compounds were prepared as 100 mM stock solution in 100% dimethylsulfoxide (DMSO) ( Table 2 ).
The half-maximal inhibitory concentration (IC50) values were determined in the presence of various concentrations of the three naphthalene-based compounds. […] The absorbance Tinitia and Tfinal (5 min) was measured at 450 nm. XY graphs were drawn by linear regression and error bars represent means ± SD of three independent experiments.

[6] = test system: Plasmodium falciparum lactate dehydrogenase (PfLDH); settings: 2005, cited from earlier work; for IC50: ref Conners et al.
Plasmodium falciparum = test system: Plasmodium falciparum; design: method as in Vivas et al., 2005; settings: ref Vivas et al., 2005; read-out: IC50 against growth of P. falciparum in vitro; cited from earlier work
Babesia bovis = test system: Babesia bovis; design: method as in Bork et al., 2004; settings: ref Bork et al., 2004; read-out: IC50 in vitro against B. bovis; cited from earlier work
LDH-B4 = settings: mammalian LDHs, competitive with NADH binding; read-out: K i for LDH-B4; cited from earlier work
LDH-C4 = settings: mammalian LDHs, competitive with NADH binding; read-out: K i for LDH-C4; cited from earlier work
BbLDH = settings: read-out: K i against BbLDH; ref Bork et al., 2004; cited from earlier work
LDH-A4 = settings: mammalian LDHs, competitive with NADH binding; read-out: K i for LDH-A4; cited from earlier work
BmLDH = target: BmLDH; design: method as in Yu et al., 2019; settings: ref Yu et al., 2019; read-out: K i against BmLDH; cited from earlier work
B. microti = test system: B. microti; design: method as in Yu et al., 2019; settings: ref Yu et al., 2019; read-out: IC50 against B. microti in vitro; cited from earlier work
[7] = test system: glyceraldehyde-3-phosphate dehydrogenase; design: method as in Deck et al., 1998; Rellinger et al., 2017; settings: even at high concentrations; ref Deck et al., 1998; Rellinger et al., 2017; cited from earlier work
human LDH-B = test system: human LDH-B; design: method as in Deck et al., 1998; Rellinger et al., 2017; settings: even at high concentrations; ref Deck et al., 1998; Rellinger et al., 2017; cited from earlier work
[8] = 72 h post-treatment, Giemsa smear parasitemia, read-out: IC50 against growth of B. microti in vitro
[9] = asexual blood stage, 72 h, read-out: PRA-99 IC50
[10] = SPR, 1:1 binding model, rBmLDH immobilized on CM5
[11] = rBmLDH 100 ng, lactate to pyruvate, absorbance 450 nm, 37°C, read-out: BmLDH IC50

Sequence of rBmLDH (I7J7V6 entry or part of it): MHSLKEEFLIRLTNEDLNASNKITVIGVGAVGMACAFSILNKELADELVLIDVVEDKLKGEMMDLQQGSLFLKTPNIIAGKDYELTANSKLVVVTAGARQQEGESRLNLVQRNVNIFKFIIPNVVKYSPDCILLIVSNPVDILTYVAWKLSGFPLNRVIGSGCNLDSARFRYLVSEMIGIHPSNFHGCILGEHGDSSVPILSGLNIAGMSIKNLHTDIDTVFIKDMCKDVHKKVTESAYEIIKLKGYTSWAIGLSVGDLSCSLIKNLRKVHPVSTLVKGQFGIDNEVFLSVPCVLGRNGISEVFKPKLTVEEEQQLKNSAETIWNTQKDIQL
Sequence of recombinant BmLDH (rBmLDH) (I7J7V6 entry or part of it): as above

SMILES: O=C(O)c1cc2cc(Br)ccc2c(Br)c1O [DBHCA, 1,6-Dibromo-2-hydroxynapthalene 3-carboxylic acid]
IC50 [1]: 5900 µM | SI (selectivity index) (Vero cells): 2.6 | CC50 at 72 h ([2]; read-out: CC50 Vero): 217 µM | CC50 at 72 h ([2]; read-out: CC50 in Vero cells): 216 ± 18 µM | IC50 [3, 8]: 84.8 µM | IC50 [3, 9]: 85 µM | Kd (rBmLDH): 0.0399 µM | kon (rBmLDH; SPR, 1:1 binding model, rBmLDH immobilized on CM5, read-out: k a): 37700 M⁻¹ s⁻¹ | koff (rBmLDH; [10]): 0.0015 s⁻¹ | cellular hemolysis [4]: no cellular hemolysis | IC50 ([5]; BmLDH IC50, rBmLDH 100 ng, lactate to pyruvate, absorbance 450 nm, 37°C): 54 µM | IC50 ([5]; IC50 against BmLDH activity, rBmLDH, mean ± SD of three experiments): 53.9 ± 13.3 µM | selectivity over human LDH [5]: ~ 109 fold | IC50 [6]: 310 µM

SMILES: Cc1cc2c(C(C)C)c(O)c(O)c(C=O)c2c(O)c1-c1c(C)cc2c(C(C)C)c(O)c(O)c(C=O)c2c1O [gossypol]
IC50 (Plasmodium falciparum): 15.3 µM | IC50 (Babesia bovis): 50 µM | Ki (LDH-B4): 1.4 µM | Ki (LDH-C4): 4.2 µM | Ki (BbLDH): 0.085 µM | Ki (LDH-A4): 1.9 µM | inhibition at 0.7 µM ([5]; read-out: inhibition of the catalytic activity of BmLDH): ~100% | Ki (BmLDH): 0.67 µM | Ki ([6]; competitive, ref Vivas et al., read-out: K i against PfLDH): 0.7 µM | IC50 (B. microti): 7.07 µM

IC50 [3, 8]: 85.7 µM | IC50 [3, 9]: 86 µM | k a (rBmLDH; [10]): 20.49 1/Ms and 20.49 ± 4.18 × 10^−1 1/Ms | Kd (rBmLDH; SPR, 1:1 binding model, rBmLDH immobilized on CM5, read-out: K D): 37.7 µM | koff (rBmLDH; [10]): 0.000772 s⁻¹ | inhibition at 60 µM ([5]; at ~60 μM, read-out: rBmLDH activity inhibited): 100% | IC50 [5, 11]: 30 µM | selectivity over PfLDH ([5]; rBmLDH vs PfLDH): ~ 57 fold | selectivity over human LDH [5]: ~ 5,000 fold | IC50 ([5]; rBmLDH, mean ± SD of three experiments, read-out: IC50 against BmLDH activity): 30.2 ± 8.49 µM
SMILES: O=C(O)c1cc2cccc(O)c2cc1O [DHNA, 3,5-Dihydroxy 2-napthoic acid]
SI (selectivity index) (Vero cells): 22.1 | CC50 at 72 h ([2]; read-out: CC50 Vero): 1900 µM | cellular hemolysis [4]: no cellular hemolysis | IC50 [6]: 1700 µM

SMILES: COc1cccc2c1C(=O)c1c(O)c3c(c(O)c1C2=O)C[C@@](O)(C(=O)CO)C[C@@H]3O[C@H]1C[C@H](N)[C@H](O)[C@H](C)O1 [doxorubicin, reference compound]
inhibition at 3 µM (Vero cells; Chlorocebus sabaeus, Vero, positive control at 3 µM, read-out: inhibition of growth of Vero cells): ~95%

inhibitory effect on the BmLDH activity ([5]; even at the high concentration of 500 μM): no inhibitory effect | IC50 [5, 11]: > 500 µM
SMILES: O=C(O)c1ccc2cc(C(=O)O)ccc2c1 [NDCA, 2,6-Naphthalenedicarboxylic acid]
IC50 [1]: 1400 µM | IC50 [6]: 5100 µM

SMILES: CC(=O)NCC(=O)O.CC(=O)NCC(=O)O.N=C(N)c1ccc(N=NNc2ccc(C(=N)N)cc2)cc1 [DA, diminazene aceturate, reference compound]
inhibition of growth of the parasite ([3]; positive control at 10 μM, 72 h): ~ 75.54%

SMILES: CCCc1c(O)c(O)c(C(=O)O)c2cc(Cc3ccccc3)c(C)cc12 [FX11]
inhibition of glyceraldehyde-3-phosphate dehydrogenase [7]: not | inhibition of human LDH-B (human LDH-B): not
